Assay results as given in ChEMBL document CHEMBL3352592, “The antileishmanial activity of isoforms 6- and 8-selective histone deacetylase inhibitors” (Bioorg Med Chem Lett, 2014).
≈ marks a conversion by molar mass, not a printed value.

Legend:
THP-1 = assay: Cytotoxicity against human THP1 cells after 48 hrs by Alamar blue assay; type: ADME, cell-based; conditions: THP-1, 48 h
Leishmania donovani [1] = assay: Antileishmanial activity against promastigote stage of Leishmania donovani after 72 hrs by Alamar blue assay; type: functional, organism-based
Leishmania donovani [2] = assay: Antileishmanial activity against amastigote stage of Leishmania donovani infected in human THP1 cells after 48 hrs by Alamar blue assay; type: functional, organism-based; conditions: THP-1, 48 h
Leishmania donovani [3] = assay: Antileishmanial activity against axenic amastigote stage of Leishmania donovani after 72 hrs by Alamar blue assay; type: functional, organism-based
[4] = target: T1, Protein deacetylase HDAC6 (Homo sapiens, UniProt Q9UBN7); assay: Inhibition of HDAC6 in human LNCAP cells assessed as tubulin acetylation by Western blot analysis; type: cell-based
T1 sequence (Q9UBN7 whole entry): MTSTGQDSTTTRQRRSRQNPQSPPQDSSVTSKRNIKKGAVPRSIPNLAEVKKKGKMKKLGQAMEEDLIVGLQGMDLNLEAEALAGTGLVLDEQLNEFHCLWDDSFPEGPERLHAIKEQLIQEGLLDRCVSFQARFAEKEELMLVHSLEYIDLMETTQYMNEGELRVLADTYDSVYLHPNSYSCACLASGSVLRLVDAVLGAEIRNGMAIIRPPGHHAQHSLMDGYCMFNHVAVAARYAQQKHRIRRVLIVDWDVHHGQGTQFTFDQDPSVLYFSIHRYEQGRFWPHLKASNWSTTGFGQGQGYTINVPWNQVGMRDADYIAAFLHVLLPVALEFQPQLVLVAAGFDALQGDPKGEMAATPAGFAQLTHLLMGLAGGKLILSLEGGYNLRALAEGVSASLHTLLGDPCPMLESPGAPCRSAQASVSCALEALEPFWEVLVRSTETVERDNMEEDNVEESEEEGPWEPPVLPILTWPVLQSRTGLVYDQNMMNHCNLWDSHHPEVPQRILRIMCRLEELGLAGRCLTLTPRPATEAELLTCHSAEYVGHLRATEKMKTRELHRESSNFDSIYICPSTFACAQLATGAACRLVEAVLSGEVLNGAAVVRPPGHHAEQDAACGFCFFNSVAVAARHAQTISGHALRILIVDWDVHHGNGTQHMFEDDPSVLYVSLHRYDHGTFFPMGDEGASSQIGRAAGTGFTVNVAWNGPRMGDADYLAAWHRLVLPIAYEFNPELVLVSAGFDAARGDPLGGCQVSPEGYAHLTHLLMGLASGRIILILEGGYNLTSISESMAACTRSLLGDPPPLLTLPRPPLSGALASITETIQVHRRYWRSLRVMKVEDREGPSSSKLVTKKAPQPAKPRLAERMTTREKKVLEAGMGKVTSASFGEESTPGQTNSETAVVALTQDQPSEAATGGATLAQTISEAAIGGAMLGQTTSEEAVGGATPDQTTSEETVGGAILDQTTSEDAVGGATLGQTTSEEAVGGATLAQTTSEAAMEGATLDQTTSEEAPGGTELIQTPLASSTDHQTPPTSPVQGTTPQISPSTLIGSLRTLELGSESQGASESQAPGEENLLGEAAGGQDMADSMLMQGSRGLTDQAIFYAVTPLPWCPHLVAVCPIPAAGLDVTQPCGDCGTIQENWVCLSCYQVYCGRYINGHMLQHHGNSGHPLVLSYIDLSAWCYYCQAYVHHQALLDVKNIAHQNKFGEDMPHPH

DU-145 = assay: Cytotoxicity against human DU145 cells; type: functional, cell-based
Leishmania donovani [5] = assay: Selectivity ratio of IC50 for axenic amastigote stage of Leishmania donovani to IC50 for amastigote stage of Leishmania donovani infected in human THP1 cells; type: functional, THP-1
Jurkat = assay: Cytotoxicity against human Jurkat cells; type: functional, cell-based
[6] = Cytotoxicity against human Jurkat gamma1 cells; type: functional, cell-based
LNCaP = assay: Cytotoxicity against human LNCAP cells; type: functional, cell-based

Compound	IC50 (THP-1)	IC50 (Leishmania donovani [1])	IC50 (Leishmania donovani [2])	IC50 (Leishmania donovani [3])	IC50 [4]	IC50 (DU-145)	Ratio IC50 (Leishmania donovani [5])	IC50 (Jurkat)	IC50 [6]	IC50 (LNCaP)
N=C(N)c1ccc(OCCCCCOc2ccc(C(=N)N)cc2)cc1 [PENTAMIDINE]	> 10 µg/mL	0.6 µg/mL (≈ 1.76 µM)	0.4 µg/mL (≈ 1.17 µM)	8.9 µg/mL (≈ 26.1 µM)						
O=c1c(O)cccn1Cc1cn(-c2ccccc2)nn1	> 10 µg/mL	> 40 µg/mL	> 10 µg/mL	18 µg/mL (≈ 67.1 µM)						
CN(C)c1ccc(-n2cc(Cn3cccc(O)c3=S)nn2)cc1	> 10 µg/mL	1.3 µg/mL (≈ 3.97 µM)	1.5 µg/mL (≈ 4.58 µM)	5.3 µg/mL (≈ 16.2 µM)						
Oc1cccnc1O	> 10 µg/mL	> 40 µg/mL	> 10 µg/mL	> 40 µg/mL						
Cc1cccc(-c2ccc(Cn3cccc(O)c3=S)cc2)c1	> 10 µg/mL	0.3 µg/mL (≈ 0.976 µM)	> 10 µg/mL	32.6 µg/mL (≈ 106 µM)						
CN(C)c1ccc(-n2cc(Cn3cccc(O)c3=O)nn2)cc1	> 10 µg/mL	14.5 µg/mL (≈ 46.6 µM)	2 µg/mL (≈ 6.42 µM)	> 40 µg/mL						
Cc1ccccc1-c1ccc(Cn2cccc(O)c2=S)cc1	> 10 µg/mL	0.3 µg/mL (≈ 0.976 µM)	2.1 µg/mL (≈ 6.83 µM)	34.4 µg/mL (≈ 112 µM)	7.75 µM	13.6 µM				
Oc1cccn(Cc2cn(-c3ccccc3)nn2)c1=S	> 10 µg/mL	3.2 µg/mL (≈ 11.3 µM)	2.7 µg/mL (≈ 9.5 µM)	6.2 µg/mL (≈ 21.8 µM)						
N#Cc1cccc(-c2ccc(Cn3cccc(O)c3=S)cc2)c1	> 10 µg/mL	0.4 µg/mL (≈ 1.26 µM)	3.9 µg/mL (≈ 12.2 µM)	11.2 µg/mL (≈ 35.2 µM)						
C[C@@H]1[C@H](O)[C@@H](C)/C=C/C=C/C=C/C=C/C=C/C=C/C=C/[C@H](O[C@@H]2O[C@H](C)[C@@H](O)[C@H](N)[C@@H]2O)C[C@@H]2O[C@](O)(C[C@@H](O)C[C@@H](O)[C@H](O)CC[C@@H](O)C[C@@H](O)CC(=O)O[C@H]1C)C[C@H](O)[C@H]2C(=O)O [AMPHOTERICIN B]	> 10 µg/mL		0.2 µg/mL (≈ 0.216 µM)	1.6 µg/mL (≈ 1.73 µM)						
Cc1ccccc1-c1ccc(Cn2cccc(O)c2=O)cc1	> 10 µg/mL	27.6 µg/mL (≈ 94.7 µM)	> 10 µg/mL	31.6 µg/mL (≈ 108 µM)						
N#Cc1ccccc1-c1ccc(Cn2cccc(O)c2=O)cc1	> 10 µg/mL	26.7 µg/mL (≈ 88.3 µM)	1.8 µg/mL (≈ 5.95 µM)	> 40 µg/mL						
Oc1cccn(Cc2ccc(-c3ccccc3)cc2)c1=S	> 10 µg/mL	0.1 µg/mL (≈ 0.341 µM)	0.6 µg/mL (≈ 2.05 µM)	6.3 µg/mL (≈ 21.5 µM)			5			
N#Cc1ccc(-c2ccc(Cn3cccc(O)c3=S)cc2)cc1	> 10 µg/mL	0.7 µg/mL (≈ 2.2 µM)	0.9 µg/mL (≈ 2.83 µM)	6.1 µg/mL (≈ 19.2 µM)			5			
Cc1ccc(-c2ccc(Cn3cccc(O)c3=O)cc2)cc1	> 10 µg/mL	6 µg/mL (≈ 20.6 µM)	> 10 µg/mL	29 µg/mL (≈ 99.5 µM)						
CN(C)c1ccc(-c2ccc(Cn3cccc(O)c3=O)cc2)cn1	> 10 µg/mL	38.9 µg/mL (≈ 121 µM)	> 10 µg/mL	> 40 µg/mL						
Oc1ccc[nH]c1=S	> 10 µg/mL	12.7 µg/mL (≈ 99.9 µM)	6.1 µg/mL (≈ 48 µM)	30.7 µg/mL (≈ 241 µM)						
N#Cc1ccc(-c2ccc(Cn3cccc(O)c3=O)cc2)cc1	> 10 µg/mL	4.6 µg/mL (≈ 15.2 µM)	3.5 µg/mL (≈ 11.6 µM)	5 µg/mL (≈ 16.5 µM)						
Cc1cccc(-c2ccc(Cn3cccc(O)c3=O)cc2)c1	> 10 µg/mL	12.6 µg/mL (≈ 43.2 µM)	> 10 µg/mL	32.5 µg/mL (≈ 112 µM)						
CN1CCc2c(c3ccccc3n2Cc2ccc(C(=O)NO)cc2)C1 [TUBASTATIN A]	> 10 µg/mL	4.4 µg/mL (≈ 13.1 µM)		8.8 µg/mL (≈ 26.2 µM)						
COc1ccc(Cn2ccc3ccc(C(=O)NO)cc32)cc1	> 10 µg/mL		> 10 µg/mL	> 40 µg/mL						
Cc1ccc(-c2ccc(Cn3cccc(O)c3=S)cc2)cc1	> 10 µg/mL	0.3 µg/mL (≈ 0.976 µM)	3.7 µg/mL (≈ 12 µM)	31.3 µg/mL (≈ 102 µM)						
O=c1c(O)cccn1Cc1ccccc1	> 10 µg/mL	9.3 µg/mL (≈ 46.2 µM)	> 10 µg/mL	> 40 µg/mL						
Oc1cccn(Cc2ccccc2)c1=S	> 10 µg/mL	0.1 µg/mL (≈ 0.46 µM)	5.8 µg/mL (≈ 26.7 µM)	6.5 µg/mL (≈ 29.9 µM)						
N#Cc1ccccc1-c1ccc(Cn2cccc(O)c2=S)cc1	> 10 µg/mL	0.9 µg/mL (≈ 2.83 µM)	> 10 µg/mL	31.7 µg/mL (≈ 99.6 µM)		> 20 µM		8.95 µM	Not Active	14.7 µM
CN(C)c1ccc(-c2ccc(Cn3cccc(O)c3=S)cc2)cc1	> 10 µg/mL	0.2 µg/mL (≈ 0.594 µM)	0.3 µg/mL (≈ 0.892 µM)	7.4 µg/mL (≈ 22 µM)			5			
CN(C)c1ccc(-c2ccc(Cn3cccc(O)c3=O)cc2)cc1	> 10 µg/mL	7.5 µg/mL (≈ 23.4 µM)	> 10 µg/mL	4 µg/mL (≈ 12.5 µM)						
N#Cc1cccc(-c2ccc(Cn3cccc(O)c3=O)cc2)c1	> 10 µg/mL	9 µg/mL (≈ 29.8 µM)	2.3 µg/mL (≈ 7.61 µM)	> 40 µg/mL						
CN(C)c1ccc(-c2ccc(Cn3cccc(O)c3=S)cc2)cn1	> 10 µg/mL	2.3 µg/mL (≈ 6.82 µM)	2.6 µg/mL (≈ 7.7 µM)	6.1 µg/mL (≈ 18.1 µM)						
O=c1c(O)cccn1Cc1ccc(-c2ccccc2)cc1	> 10 µg/mL	6.8 µg/mL (≈ 24.5 µM)	1.7 µg/mL (≈ 6.13 µM)	30.9 µg/mL (≈ 111 µM)						
